# In US8658687B2, “Injectable formulations containing asenapine and method of treatment using same” (Merck Sharp & Dohme Corp., priority 2009, dated 2014):
# What was measured:
# [1] = Stability of particles suspended in pH 7 phosphate buffer on storage, crystal form followed by DSC; assay type: physicochemical; settings: suspended in phosphate buffer pH 7, stored at 30° C. and 40° C.
# Description: With reference to FIG. 2a, the conversion of Form I to Form II was monitored by periodically taking aliquots of the stored suspension, isolating the suspended solids by filtration and drying the isolated solids at room temperature. DSC analysis was performed on the isolated, dried solids using a 10 mg sample of the solids and a Mettler DSC 822e programmed to heat at a rate of 10° C./min, from 25° C. to 250° C. The results of this study are presented in, with the result shown in the upper traces of FIG. 2a.
# [2] = Plasma levels of asenapine after IM depot injection in rabbits; assay type: in vivo, New Zealand white rabbits; settings: 1 mL IM injection, 20 wt % suspension, Form I mean particle size 20 micron, Form II 16 micron, rabbit
# Description: Each of the formulations prepared in Example 2 were administered to a series of experimental animal subjects (New Zealand white rabbits) as a depot injection. A depot of 1 mL volume of the formulation selected was administered into the left limb of the subject. At time intervals following injection, blood samples were collected from the subject's ear artery in 0.03 mL of 0.2M EDTA, Samples were collected at 1, 3, and 6 hours post injection, then 1, 2, 3, and 6 days post injection, then on days 10, 13, 17, 20, 24 and 25. Once collected, blood samples were centrifuged for 2 min. at room temperature (125,000 N/kg). Plasma samples thus obtained were analyzed by LC/MS after adding an internal standard. The asenapine and internal standard were isolated from the sample by solid phase extraction. […]
# In additional animal studies, and with Reference to FIG. 10, using the same procedures described above, suspensions comprising 20 wt % of asenapine hemipamoate of Form I (mean particle size of 20 micron) and Form II (mean particle size 16 micron) were prepared. […] Plasma levels of asenapine were determined using the above-described procedure. […]
# [3] = Solubility in aqueous phosphate buffer at pH 7
# [4] = In vitro dissolution in USP paddle stirring dissolution apparatus; settings: for rate of dissolution, Form I compared with Form II (FIG. 8a): phosphate buffered saline 10 mM pH 7.0, 37° C., 100 RPM, similar particle size fractions
# Description: To carry out these studies, particle, fractions of crystalline Form II of asenapine hemipamoate having d50, values of 3.5 microns, 7 microns, and 20 microns respectively, (see FIG. 7e) were obtained and placed into one of the dissolution vessels of the apparatus. Prior to charging a dissolution vessel with an aliquot of particles, each of the vessels was filled with 1 L of phosphate buffered saline (10 mM, adjusted to pH 7.0) and fitted with a probe that contained a mirror and optical arrangement in its tip defining a fixed sample path. Each probe was optically connected to a central light source and detector permitting real-time photometric monitoring of the concentration of asenapine in solution as dissolution proceeded during the investigation.
# The particle fractions were prepared for use in the apparatus by dispersing the sample (20 mg) in 1 mL of an aqueous solution comprising 3 wt. % macrogol 3400, 0.118 wt. % of disodium hydrogen phosphate, 0.047 wt. % sodium dihydrogen phosphate and 0.76 wt. % sodium chloride. Each determination was carried out by adjusting the apparatus to the desired dissolution conditions (temperature, paddle speed, pH of dissolution media) and injecting 50 microliter of the selected crystalline Form II of asenapine hemipamoate dispersion (equivalent to 1 mg of crystalline Form II of asenapine hemipamoate) into a dissolution vessel filled with the desired dissolution medium. Asenapine hemipamoate concentration in the dissolution medium was monitored optically using the probe system described above during the course of the dissolution.
# The above-described in vitro testing methodology was used to compare the dissolution of crystalline crystalline Form I of asenapine hemipamoate hemipamoate (as precipitated) and crystalline Form II of asenapine hemipamoate (as precipitated). Accordingly, 20 mg of a particle fraction of crystalline Form I of asenapine hemipamoate having a d50 value of 19 microns, a d90 value of 41 microns and a d10 value of 3 microns was dispersed into 2 mL of a polysorbate 80 solution. An aliquot of 100 microliter of the dispersion was introduced into dissolution medium contained in a paddle stirring apparatus as described above. For these tests the dissolution vessels of the apparatus were filled with 1 L of phosphate buffered saline (10 mM, adjusted to pH 7.0). The temperature of the dissolution medium was maintained at 37° C. and the apparatus paddle speed was set at 100 RPM.
# For comparison, a 100 microliter sample of a dispersion comprising 100 mg of crystalline Form II of asenapine hemipamoate particle fraction having a d50 value of 16 microns, a d90 value of 50 microns, and a d10 value of 2 microns, dispersed in 1 mL of a polysorbate 80 solution, as described above was studied under the same conditions and dissolution medium used to study the sample containing crystalline Form I of asenapine hemipamoate.
# [5] = Plasma concentration of asenapine after depot injection in patients with stable chronic schizophrenia; assay type: in vivo, human; settings: 1.0 mL of 20 wt % suspension in deltoid muscle, d50 10 microns
# Description: Formulations of the invention were studied in human patients diagnosed with stable chronic schizophrenia. Using the same procedure described above, a suspension was prepared comprising 20 wt % of crystalline Form II of asenapine hemipamoate. The Form II particle fraction employed to prepare the suspension yielded a d10 value of 3 microns, a d90 value of 27 microns and a d50 value of 10 microns. An injection of 1.0 mL volume of the suspension was administered in the deltoid muscle of the upper arm by inserting the needle in the thickest part of the deltoid muscle at a 90 degree angle to the skin, followed by aspiration for 5 to 10 seconds, followed by injection of the depot over a 10 second interval. The plasma concentration of asenapine provided by the depot was observed using the above-described procedure.
# [6] = IM depot of suspended olanzapine pamoate particles; cited from earlier work
# [7] = IM depot injection, mean particle diameter 6.63, 10.68, 17.16 or 29.96 microns, dogs; cited from earlier work
structure (smiles),measurement,setting,value
CN1C[C@@H]2c3ccccc3Oc3ccc(Cl)cc3[C@H]2C1.CN1C[C@@H]2c3ccccc3Oc3ccc(Cl)cc3[C@H]2C1.O=C(O)c1cc2ccccc2c(Cc2c(O)c(C(=O)O)cc3ccccc23)c1O [crystalline Form I of asenapine hemipamoate] [reference compound],stability of crystalline form on storage of suspension (DSC of recovered solids),[1],slowly converted to crystalline Form II of asenapine hemipamoate
same,"initial plasma levels, Form I versus Form II (FIG. 10)",[2],burst release
same,solubility of Form I relative to Form II,[3],approximately 4 times
same,"rate of dissolution, Form I compared with Form II (FIG. 8a)",[4],significantly higher
CN1C[C@@H]2c3ccccc3Oc3ccc(Cl)cc3[C@H]2C1.CN1C[C@@H]2c3ccccc3Oc3ccc(Cl)cc3[C@H]2C1.O=C(O)c1cc2ccccc2c(Cc2c(O)c(C(=O)O)cc3ccccc23)c1O [crystalline Form II of asenapine hemipamoate],stability of crystalline form on storage of suspension (DSC of recovered solids),[1],does not decompose or convert to any other crystalline form
same,period of controlled release of asenapine (FIG. 11),[5],about 4 weeks
same,effect of temperature of dissolution medium on dissolution behavior (FIG. 7b),[4]; 35° C. to 39° C.,reasonably insensitive to variation in temperature
same,effect of paddle speed on dissolution behavior (FIG. 7d),[4]; 50 rpm to 150 rpm,reasonably insensitive to variation in the paddle speed
same,effect of dissolution medium pH on rate of dissolution (FIG. 7c),"[4]; pH 6 to pH 8, d50 3.5 or 20 micron fractions",does not significantly vary the rate of dissolution
same,"rate of dissolution, Form I compared with Form II (FIG. 8a)",[4],dissolve much slower
same,effect of d50 value of particle fraction on rate of dissolution (FIG. 7a),"[4]; same conditions, d50 3.5, 7, 20 microns",greatly influenced by the d50 value
Cc1cc2c(s1)Nc1ccccc1N=C2N1CCN(C)CC1.O.O=C(O)c1cc2ccccc2c(Cc2c(O)c(C(=O)O)cc3ccccc23)c1O [olanzapine pamoate],adverse events in trials,[6],extreme sedation and reversible coma
CCC1(c2ccccc2)C(=O)NC(=O)NC1=O [phenobarbital],plasma concentrations of phenobarbital versus mean particle diameter (FIG. 1),[7],tracked inversely with the mean particle diameter
